Measured values taken from ChEMBL document CHEMBL1201862, “PubChem BioAssay data set” (2004).
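Cells were grown in 96-well plates and exposed to each compound for 48 hours at five concentrations; endpoints were interpolated linearly between bracketing concentrations, or set to the highest concentration if not reached. The concentration for 50% growth inhibition is given as GI50.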 The source made the active and inactive calls. No stated cut-off is given here; in the data, active = GI50 up to about 1.1 µM and inactive = higher.

What was measured:
Experiment in all cases: inhibition of tumour cell growth, NCI panel, 48 h
[1] = test system: HOP-92
[2] = test system: UACC-62
[3] = test system: OVCAR-4
[4] = test system: NCI/ADR-RES
[5] = test system: MDA-N
[6] = test system: SN12C
[7] = test system: OVCAR-8
[8] = test system: HOP-62
[9] = test system: U-251
[10] = test system: OVCAR-5
[11] = test system: NCI-H460
[12] = test system: NCI-H522
[13] = test system: CAKI-1
[14] = test system: SW-620
[15] = test system: OVCAR-3
[16] = test system: TK-10
[17] = test system: DU-145
[18] = test system: HCC 2998
[19] = test system: SF-295
[20] = test system: SR

SMILES: CC(=O)[C@H]1CC[C@H]2[C@@H]3CCC4=CC(=O)CC[C@]4(C)[C@H]3CC[C@]12C [PROGESTERONE]
- GI50 [1]: 25.7 µM (inactive)
- GI50 [2]: 14.7 µM (inactive)
- GI50 [3]: 18.7 µM (inactive)
- GI50 [4]: 13.7 µM (inactive)
- GI50 [5]: 16.7 µM (inactive)
- GI50 [6]: 18.6 µM (inactive)
- GI50 [7]: 18.4 µM (inactive)
- GI50 [8]: 20.6 µM (inactive)
- GI50 [9]: 17.3 µM (inactive)
- GI50 [10]: 19.5 µM (inactive)
- GI50 [11]: 18.6 µM (inactive)
- GI50 [12]: 15.6 µM (inactive)
- GI50 [13]: 28.5 µM (inactive)
- GI50 [14]: 31 µM (inactive)
- GI50 [15]: 17.3 µM (inactive)
- GI50 [16]: 23.9 µM (inactive)
- GI50 [17]: 28.1 µM (inactive)
- GI50 [18]: 16.9 µM (inactive)
- GI50 [19]: 25.9 µM (inactive)
- GI50 [20]: > 100 µM (inactive)

SMILES: Cc1ccc(-n2cc(-c3ccc(Cl)cc3)c3c2N=CN2N=C(c4ccco4)NC32)cc1 (stereo not given)
- GI50 [1]: 2.09 µM (inactive)
- GI50 [2]: 13.1 µM (inactive)
- GI50 [3]: 1.93 µM (inactive)
- GI50 [4]: 7.5 µM (inactive)
- GI50 [5]: 19.5 µM (inactive)
- GI50 [6]: 3.62 µM (inactive)
- GI50 [7]: 6.28 µM (inactive)
- GI50 [8]: 7.64 µM (inactive)
- GI50 [9]: 5.46 µM (inactive)
- GI50 [10]: > 100 µM (inactive)
- GI50 [11]: 4.49 µM (inactive)
- GI50 [12]: 15.8 µM (inactive)
- GI50 [13]: 10.1 µM (inactive)
- GI50 [14]: 8.87 µM (inactive)
- GI50 [15]: 6.49 µM (inactive)
- GI50 [16]: 7.5 µM (inactive)
- GI50 [17]: > 100 µM (inactive)
- GI50 [18]: > 100 µM (inactive)
- GI50 [19]: 6.11 µM (inactive)
- GI50 [20]: 0.78 µM (active)

SMILES: Nc1ccc(C(=O)Nc2ccccc2N)cc1 [DINALINE]
- GI50 [1]: 37.9 µM (inactive)
- GI50 [2]: 16.1 µM (inactive)
- GI50 [3]: 20.2 µM (inactive)
- GI50 [4]: 3.21 µM (inactive)
- GI50 [5]: 32.1 µM (inactive)
- GI50 [6]: 60 µM (inactive)
- GI50 [7]: 8.99 µM (inactive)
- GI50 [8]: 18.7 µM (inactive)
- GI50 [9]: 17.7 µM (inactive)
- GI50 [10]: 8.15 µM (inactive)
- GI50 [11]: 18.5 µM (inactive)
- GI50 [12]: 11.1 µM (inactive)
- GI50 [13]: 42.8 µM (inactive)
- GI50 [14]: 19.2 µM (inactive)
- GI50 [15]: 29.1 µM (inactive)
- GI50 [16]: 6.32 µM (inactive)
- GI50 [17]: 41.7 µM (inactive)
- GI50 [18]: 17.5 µM (inactive)
- GI50 [19]: 26.1 µM (inactive)
- GI50 [20]: 16.3 µM (inactive)

SMILES: CC(=O)c1ccc2c(c1)C(=O)c1sc(C(C)=O)cc1C2=O
- GI50 [1]: 1.42 µM (inactive)
- GI50 [2]: 0.995 µM (active)
- GI50 [3]: 1.73 µM (inactive)
- GI50 [4]: 0.906 µM (active)
- GI50 [5]: 0.796 µM (active)
- GI50 [6]: 0.578 µM (active)
- GI50 [7]: 0.695 µM (active)
- GI50 [8]: 1.73 µM (inactive)
- GI50 [9]: 1.56 µM (inactive)
- GI50 [10]: 1.08 µM (active)
- GI50 [11]: 1.37 µM (inactive)
- GI50 [12]: 0.652 µM (active)
- GI50 [13]: 1.75 µM (inactive)
- GI50 [14]: 0.738 µM (active)
- GI50 [15]: 0.368 µM (active)
- GI50 [16]: 1.76 µM (inactive)
- GI50 [17]: 1.01 µM (active)
- GI50 [18]: 3.17 µM (inactive)
- GI50 [19]: 1.01 µM (active)
- GI50 [20]: 0.419 µM (active)
